According to patent publication US8993752B2, “Neprilysin inhibitors” (Theravance Biopharma R&D IP, LLC, priority 2011, dated 2015):

Target: T1, human NEP (Homo sapiens, UniProt P08473)
T1 construct: purchased R&D Systems, Minneapolis, Minn; 1182-ZN
Assay: In vitro enzyme inhibition assay at human NEP (fluorogenic peptide substrate)
Assay type: biochemical
Conditions: recombinant human NEP; substrate Mca-D-Arg-Arg-Leu-Dap-(Dnp)-OH 10 μM; 37° C.; values given as ranges; read-out: pKi values at human NEP (converted)
Outline: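 Recombinant human NEP pre-incubated 30 min at 37 °C with compound (10 μM to 20 pM), then 10 μM Mca-D-Arg-Arg-Leu-Dap-(Dnp)-OH in 50 mM HEPES pH 7.5, 100 mM NaCl, 0.01% Tween-20, 10 μM ZnSO4. Stopped after 20 min with acetic acid, fluorescence read at 320/405 nm; Ki from nonlinear fit, reported as pKi.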

T1 sequence (P08473 whole entry): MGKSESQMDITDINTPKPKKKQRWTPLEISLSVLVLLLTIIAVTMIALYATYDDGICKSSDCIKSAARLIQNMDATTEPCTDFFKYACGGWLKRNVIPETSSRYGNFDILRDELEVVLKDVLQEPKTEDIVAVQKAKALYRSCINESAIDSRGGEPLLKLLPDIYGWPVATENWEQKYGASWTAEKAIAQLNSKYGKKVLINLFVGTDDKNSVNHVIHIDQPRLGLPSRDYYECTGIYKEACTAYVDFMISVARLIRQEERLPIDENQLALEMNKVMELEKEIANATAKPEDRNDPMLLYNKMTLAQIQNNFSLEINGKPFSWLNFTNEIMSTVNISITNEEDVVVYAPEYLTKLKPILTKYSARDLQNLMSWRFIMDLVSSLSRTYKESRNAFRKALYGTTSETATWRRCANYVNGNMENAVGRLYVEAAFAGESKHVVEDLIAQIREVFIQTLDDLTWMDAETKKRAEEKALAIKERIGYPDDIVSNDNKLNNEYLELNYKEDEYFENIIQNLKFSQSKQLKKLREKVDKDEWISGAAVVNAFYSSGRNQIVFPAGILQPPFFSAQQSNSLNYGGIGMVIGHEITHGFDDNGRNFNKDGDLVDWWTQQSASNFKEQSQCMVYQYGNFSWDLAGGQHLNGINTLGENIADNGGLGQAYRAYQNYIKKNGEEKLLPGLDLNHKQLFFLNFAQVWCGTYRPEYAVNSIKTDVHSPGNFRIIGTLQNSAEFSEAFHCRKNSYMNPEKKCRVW

First: O=C(N[C@H](Cc1ccccc1C(F)(F)F)[C@@H](O)C(=O)O)c1cc(C(=O)N2CC[C@H](C(=O)O)C2)[nH]n1 [Example 6-11, (S)-1-{5-[(1R,2R)-2-Carboxy-2-hydroxy-1-(2-trifluoromethyl-benzyl)-ethylcarbamoyl]-2H-pyrazole-3-carbonyl}-pyrrolidine-3-carboxylic acid]
Second: O=C(N[C@H](Cc1ccccc1)[C@@H](O)C(=O)O)c1cc(C(=O)O)[nH]n1 [Example 8-10, 5-((1R,2R)-1-Benzyl-2-carboxy-2-hydroxy-ethylcarbamoyl)-2H-pyrazole-3-carboxylic acid]
The Ki of the first is lower: 0.00126 to 0.01 µM for the first, 0.0126 to 0.1 µM for the second.

O=C(N[C@H](Cc1ccccc1)[C@@H](O)C(=O)O)c1cc(C(=O)O)n(Cc2ccc(Cl)cc2F)n1 [Example 8-1, 5-((1R,2R)-1-Benzyl-2-carboxy-2-hydroxy-ethylcarbamoyl)-2-(4-chloro-2-fluoro-benzyl)-2H-pyrazole-3-carboxylic acid] and O=C(N[C@H](Cc1ccccc1)[C@@H](O)C(=O)O)c1cc(C(=O)O)n(Cc2c(F)cc(Cl)cc2F)n1 [Example 8-3, 5-((1R,2R)-1-Benzyl-2-carboxy-2-hydroxy-ethylcarbamoyl)-2-(4-chloro-2,6-difluoro-benzyl)-2H-pyrazole-3-carboxylic acid] fall in the same range of Ki: 0.00126 to 0.01 µM for the first, 0.00126 to 0.01 µM for the second.

O=C(N[C@H](Cc1ccccc1)[C@@H](O)C(=O)O)c1cc(C(=O)O)n(Cc2cccc(F)c2)n1 [Example 8-4, 5-((1R,2R)-1-Benzyl-2-carboxy-2-hydroxy-ethylcarbamoyl)-2-(3-fluoro-benzyl)-2H-pyrazole-3-carboxylic acid] and COc1cccc(Cn2nc(C(=O)N[C@H](Cc3ccccc3)[C@@H](O)C(=O)O)cc2C(=O)O)c1 [Example 8-5, 5-((1R,2R)-1-Benzyl-2-carboxy-2-hydroxy-ethylcarbamoyl)-2-(3-methoxy-benzyl)-2H-pyrazole-3-carboxylic acid] fall in the same range of Ki: 0.00126 to 0.01 µM for the first, 0.00126 to 0.01 µM for the second.

O=C(N[C@H](Cc1ccccc1)[C@@H](O)C(=O)O)c1cc(C(=O)O)n(Cc2ccc(Cl)cc2)n1 [Example 8-6, 5-((1R,2R)-1-Benzyl-2-carboxy-2-hydroxy-ethylcarbamoyl)-2-(4-chloro-benzyl)-2H-pyrazole-3-carboxylic acid] and O=C(N[C@H](Cc1ccccc1)[C@@H](O)C(=O)O)c1cc(C(=O)O)n(Cc2ccc(F)cc2)n1 [Example 8-9, 5-((1R,2R)-1-Benzyl-2-carboxy-2-hydroxy-ethylcarbamoyl)-2-(4-fluoro-benzyl)-2H-pyrazole-3-carboxylic acid] fall in the same range of Ki: 0.00126 to 0.01 µM for the first, 0.00126 to 0.01 µM for the second.

Compared with O=C(N[C@H](Cc1ccccc1)[C@@H](O)C(=O)O)c1cc(C(=O)O)n(Cc2ccccc2)n1 [Example 8-8, 2-Benzyl-5-((1R,2R)-1-benzyl-2-carboxy-2-hydroxy-ethylcarbamoyl)-2H-pyrazole-3-carboxylic acid], O=C(N[C@H](Cc1ccccc1)[C@@H](O)C(=O)O)c1cc(C(=O)O)n(Cc2cccnc2)n1 [Example 8-15, 5-((1R,2R)-1-Benzyl-2-carboxy-2-hydroxy-ethylcarbamoyl)-2-pyridin-3-ylmethyl-2H-pyrazole-3-carboxylic acid] is higher in Ki: 0.00126 to 0.01 µM for the first, 0.0126 to 0.1 µM for the second.

O=C(N[C@H](Cc1ccccc1)[C@@H](O)C(=O)O)c1cc([N+](=O)[O-])[nH]n1 [Example 8-11, (2R,3R)-2-Hydroxy-3-[(5-nitro-1H-pyrazole-3-carbonyl)-amino]-4-phenyl-butyric acid] and CCn1nc(C(=O)N[C@H](Cc2ccccc2)[C@@H](O)C(=O)O)cc1C(=O)O [Example 8-12, 5-((1R,2R)-1-Benzyl-2-carboxy-2-hydroxy-ethylcarbamoyl)-2-ethyl-2H-pyrazole-3-carboxylic acid] fall in the same range of Ki: 0.0126 to 0.1 µM for the first, 0.0126 to 0.1 µM for the second.

COCCn1nc(C(=O)N[C@H](Cc2ccccc2)[C@@H](O)C(=O)O)cc1C(=O)O [Example 8-13, 5-((1R,2R)-1-Benzyl-2-carboxy-2-hydroxy-ethylcarbamoyl)-2-(2-methoxy-ethyl)-2H-pyrazole-3-carboxylic acid] and O=C(N[C@H](Cc1ccccc1)[C@@H](O)C(=O)O)c1cc(C(=O)O)n(CCO)n1 [Example 8-14, 5-((1R,2R)-1-Benzyl-2-carboxy-2-hydroxy-ethylcarbamoyl)-2-(2-hydroxy-ethyl)-2H-pyrazole-3-carboxylic acid] fall in the same range of Ki: 0.0126 to 0.1 µM for the first, 0.0126 to 0.1 µM for the second.

O=C(N[C@H](Cc1ccccc1)[C@@H](O)C(=O)O)c1ccn(Cc2ccc(Cl)cc2)n1 [Example 8-16, (2R,3R)-3-{[1-(4-Chloro-benzyl)-1H-pyrazole-3-carbonyl]-amino}-2-hydroxy-4-phenyl-butyric acid] and CN(C)C(=O)c1cc(C(=O)N[C@H](Cc2ccccc2)[C@@H](O)C(=O)O)nn1Cc1ccc(Cl)cc1 [Example 8-17, (2R,3R)-3-{[1-(4-Chloro-benzyl)-5-dimethylcarbamoyl-1H-pyrazole-3-carbonyl]-amino}-2-hydroxy-4-phenyl-butyric acid] fall in the same range of Ki: 0.0126 to 0.1 µM for the first, 0.0126 to 0.1 µM for the second.

First: O=C(N[C@H](Cc1ccccc1)[C@@H](O)C(=O)O)c1cc(C(=O)N2CCOCC2)n(Cc2ccc(Cl)cc2)n1 [Example 8-18, (2R,3R)-3-{[1-(4-Chloro-benzyl)-5-(morpholine-4-carbonyl)-1H-pyrazole-3-carbonyl]-amino}-2-hydroxy-4-phenyl-butyric acid]
Second: COc1ccc(Cn2nc(C(=O)N[C@H](Cc3ccccc3)[C@@H](O)C(=O)O)cc2C2CC2)cc1 [Example 8-20, (2R,3R)-3-{[5-Cyclopropyl-1-(4-methoxy-benzyl)-1H-pyrazole-3-carbonyl]-amino}-2-hydroxy-4-phenyl-butyric acid]
The Ki of the first is higher: 0.0126 to 0.1 µM for the first, 0.00126 to 0.01 µM for the second.

CCCc1cc(C(=O)N[C@H](Cc2ccccc2)[C@@H](O)C(=O)O)nn1Cc1ccccc1 [Example 8-19, (2R,3R)-3-[(1-Benzyl-5-propyl-1H-pyrazole-3-carbonyl)-amino]-2-hydroxy-4-phenyl-butyric acid] and CSc1ccc(Cn2nc(C(=O)N[C@H](Cc3ccccc3)[C@@H](O)C(=O)O)cc2C2CC2)cc1 [Example 8-23, (2R,3R)-3-{[5-Cyclopropyl-1-(4-methylsulfanyl-benzyl)-1H-pyrazole-3-carbonyl]-amino}-2-hydroxy-4-phenyl-butyric acid] fall in the same range of Ki: 0.0126 to 0.1 µM for the first, 0.0126 to 0.1 µM for the second.

Compared with COc1ccc(Cn2nc(C(=O)N[C@H](Cc3ccccc3)[C@@H](O)C(=O)O)cc2C2CC2)c(F)c1F [Example 8-21, (2R,3R)-3-{[5-Cyclopropyl-1-(2,3-difluoro-4-methoxy-benzyl)-1H-pyrazole-3-carbonyl]-amino}-2-hydroxy-4-phenyl-butyric acid], COc1c(F)c(F)c(Cn2nc(C(=O)N[C@H](Cc3ccccc3)[C@@H](O)C(=O)O)cc2C2CC2)c(F)c1F [Example 8-22, (2R,3R)-3-{[5-Cyclopropyl-1-(2,3,5,6-tetrafluoro-4-methoxy-benzyl)-1H-pyrazole-3-carbonyl]-amino}-2-hydroxy-4-phenyl-butyric acid] is lower in Ki: 0.00126 to 0.01 µM for the first, ≤ 0.001 µM for the second.

CCOc1ncc(Cn2nc(C(=O)N[C@H](Cc3ccccc3)[C@@H](O)C(=O)O)cc2C2CC2)cn1 [Example 8-24, (2R,3R)-3-{[5-Cyclopropyl-1-(2-ethoxy-pyrimidin-5-ylmethyl)-1H-pyrazole-3-carbonyl]-amino}-2-hydroxy-4-phenyl-butyric acid] and O=C(N[C@H](Cc1ccccc1)[C@@H](O)C(=O)O)c1cnn(-c2ccccn2)c1 [Example 9-1, (2R,3R)-2-Hydroxy-4-phenyl-3-[(1-pyridin-2-yl-1H-pyrazole-4-carbonyl)-amino]-butyric acid] fall in the same range of Ki: 0.0126 to 0.1 µM for the first, 0.0126 to 0.1 µM for the second.

First: O=C(O)C[C@@H](Cc1ccccc1Cl)NC(=O)c1cc(C(=O)O)n(Cc2cccc(Cl)c2)n1 [Example 10, 5-[(R)-2-Carboxy-1-(2-chlorobenzyl)-ethylcarbamoyl]-2-(3-chlorobenzyl)-2H-pyrazole-3-carboxylic Acid]
Second: O=C(O)C[C@@H](Cc1ccccc1Cl)NC(=O)c1cc(C(=O)O)n(Cc2cccc(F)c2)n1 [Example 11-6, 5-[(R)-2-Carboxy-1-(2-chloro-benzyl)-ethylcarbamoyl]-2-(3-fluoro-benzyl)-2H-pyrazole-3-carboxylic acid]
The Ki of the first is lower: 0.00126 to 0.01 µM for the first, 0.0126 to 0.1 µM for the second.

COc1cccc(Cn2nc(C(=O)N[C@@H](CC(=O)O)Cc3ccccc3Cl)cc2C(=O)O)c1 [Example 11-1, 5-[(R)-2-Carboxy-1-(2-chloro-benzyl)-ethylcarbamoyl]-2-(3-methoxy-benzyl)-2H-pyrazole-3-carboxylic acid] and COc1ccc(Cn2nc(C(=O)N[C@@H](CC(=O)O)Cc3ccccc3Cl)cc2C(=O)O)cc1 [Example 11-2, 5-[(R)-2-Carboxy-1-(2-chloro-benzyl)-ethylcarbamoyl]-2-(4-methoxy-benzyl)-2H-pyrazole-3-carboxylic acid] fall in the same range of Ki: 0.0126 to 0.1 µM for the first, 0.0126 to 0.1 µM for the second.

O=C(O)C[C@@H](Cc1ccccc1Cl)NC(=O)c1cc(C(=O)O)n(Cc2ccc(Cl)cc2)n1 [Example 11-3, 5-[(R)-2-Carboxy-1-(2-chloro-benzyl)-ethylcarbamoyl]-2-(4-chloro-benzyl)-2H-pyrazole-3-carboxylic acid] and Cc1ccc(Cn2nc(C(=O)N[C@@H](CC(=O)O)Cc3ccccc3Cl)cc2C(=O)O)cc1 [Example 11-5, 5-[(R)-2-Carboxy-1-(2-chloro-benzyl)-ethylcarbamoyl]-2-(4-methyl-benzyl)-2H-pyrazole-3-carboxylic acid] fall in the same range of Ki: 0.0126 to 0.1 µM for the first, 0.0126 to 0.1 µM for the second.

O=C(O)C[C@@H](Cc1ccccc1Cl)NC(=O)c1cc(C(=O)O)n(Cc2ccccc2)n1 [Example 11-4, 2-Benzyl-5-[(R)-2-carboxy-1-(2-chloro-benzyl)-ethylcarbamoyl]-2H-pyrazole-3-carboxylic acid] and O=C(O)C[C@@H](Cc1ccccc1Cl)NC(=O)c1cc(C(=O)O)[nH]n1 [Example 11-7, 5-[(R)-1-Carboxymethyl-2-(2-chloro-phenyl)-ethylcarbamoyl]-2H-pyrazole-3-carboxylic acid] fall in the same range of Ki: 0.0126 to 0.1 µM for the first, 0.0126 to 0.1 µM for the second.
